Experimental findings from ChEMBL document CHEMBL6182941, “Prodrugs Targeting Prostate-Specific Membrane Antigen against Prostate Cancer” (J Med Chem, 2025) are described below.

The target of series [1] is T1, Glutamate carboxypeptidase 2 (Homo sapiens, UniProt Q04609). The series is described as follows: Binding affinity to human recombinant PSMA in LNCaP cells assessed as inhibition constant. Format: cell-based.
A short description of series [2]: Cytotoxicity against human PC-3 flu cells.
A short description of series [3]: Cytotoxicity against human PC-3 flu cells assessed as reduction in cell viability incubated for 72 hrs by CCK-8 assay.
Series [4] is described as follows: Cytotoxicity against human PC3-PIP cells. The note with it: PC3-PIP cell.
Series [5] in a line: Cytotoxicity against human PC3-PIP cells assessed as reduction in cell viability incubated for 72 hrs by CCK-8 assay.
Series [6] relates to CWR22R. The series is described as follows: Cytotoxicity against human 22Rv1 cells assessed as reduction in cell viability incubated for 48 hrs by MTT assay. Format: functional, cell-based. To be noted: 22Rv1, 48 h. Background: Tetrazolium dyes change colour on reduction, which living cells bring about.
Series [7] can be described thus: Cytotoxicity against human HK-2 cells assessed as reduction in cell viability incubated for 48 hrs by MTT assay. Format: toxicity, cell-based.
Series [8] in a line: Antiproliferative activity against human PC3-PIP cells assessed as reduction in cell viability incubated for 72 hrs by XTT assay.
The nature of series [9]: Antitumor activity against human PC3-PIP cells xenografted in […] assessed as reduction in tumor volume at 80 mg/kg, IP. The class given is functional, PC3-PIP cell.
Series [10] concerns the target Cathepsin B (Homo sapiens, UniProt P07858). As to the kind of experiment: Inhibition of cathepsin B (unknown origin).
The subject of series [11] is A549. The series is described as follows: Cytotoxicity against human A549 cells assessed as reduction in cell growth. Format: functional, cell-based.
For series [12], the system named is KB. The series is described as follows: Cytotoxicity against human KB cells assessed as reduction in cell growth. Format: functional, cell-based.
Series [13] relates to LNCaP. The series is described as follows: Cytotoxicity against human LNCaP cells assessed as cell death measured for 24 hrs. The class given is functional, cell-based.
The subject of series [14] is DU-145. As to the kind of experiment: Cytotoxicity against human DU-145 cells assessed as reduction in cell viability incubated for 72 hrs by MTT assay. The note with it: DU-145, 72 h.
For series [15], the system named is LNCaP. The series is described as follows: Cytotoxicity against human LNCaP cells assessed as reduction in cell viability incubated for 72 hrs by MTT assay.
Series [16] has as its target T2, N-acetylaspartylglutamate synthase A (Homo sapiens, UniProt Q8IXN7).
T2 sequence (Q8IXN7 whole entry): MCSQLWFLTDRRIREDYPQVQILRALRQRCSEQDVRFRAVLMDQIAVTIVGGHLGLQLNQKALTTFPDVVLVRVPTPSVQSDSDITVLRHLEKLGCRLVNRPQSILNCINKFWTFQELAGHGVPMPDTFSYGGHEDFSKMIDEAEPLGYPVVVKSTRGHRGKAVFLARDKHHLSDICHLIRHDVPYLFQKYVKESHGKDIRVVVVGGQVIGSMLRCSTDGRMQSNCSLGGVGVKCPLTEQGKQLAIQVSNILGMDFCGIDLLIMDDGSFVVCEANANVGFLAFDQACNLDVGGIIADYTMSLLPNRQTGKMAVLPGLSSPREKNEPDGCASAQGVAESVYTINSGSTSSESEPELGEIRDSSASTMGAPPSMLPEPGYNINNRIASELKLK
The series is described as follows: Binding affinity to NAAG synthetase A (unknown origin) assessed as inhibition constant.

In series [17] the target is N-acetylated-alpha-linked acidic dipeptidase 2 (Homo sapiens, UniProt Q9Y3Q0). As to the kind of experiment: Binding affinity to NAALAD-2 (unknown origin) assessed as inhibition constant.
N-acetylated-alpha-linked acidic dipeptidase 2, sequence (Q9Y3Q0 whole entry): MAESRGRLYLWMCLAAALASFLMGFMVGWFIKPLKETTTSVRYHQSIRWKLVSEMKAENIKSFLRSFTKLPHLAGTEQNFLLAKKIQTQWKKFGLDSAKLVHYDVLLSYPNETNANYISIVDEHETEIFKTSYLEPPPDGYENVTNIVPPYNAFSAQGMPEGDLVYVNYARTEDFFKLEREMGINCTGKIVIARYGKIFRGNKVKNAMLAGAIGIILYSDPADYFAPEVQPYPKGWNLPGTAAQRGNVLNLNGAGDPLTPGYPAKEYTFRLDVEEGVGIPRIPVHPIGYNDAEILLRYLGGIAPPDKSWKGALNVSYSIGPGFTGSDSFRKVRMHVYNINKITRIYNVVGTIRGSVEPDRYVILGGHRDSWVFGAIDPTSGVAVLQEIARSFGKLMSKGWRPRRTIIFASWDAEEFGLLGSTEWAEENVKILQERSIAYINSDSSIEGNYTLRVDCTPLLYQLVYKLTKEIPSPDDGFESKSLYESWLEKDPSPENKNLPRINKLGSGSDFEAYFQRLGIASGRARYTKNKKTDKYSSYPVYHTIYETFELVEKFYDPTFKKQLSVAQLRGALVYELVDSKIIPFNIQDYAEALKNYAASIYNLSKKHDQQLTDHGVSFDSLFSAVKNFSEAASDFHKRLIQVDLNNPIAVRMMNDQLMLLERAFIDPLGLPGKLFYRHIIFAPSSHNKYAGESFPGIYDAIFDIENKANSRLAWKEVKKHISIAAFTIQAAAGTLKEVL
Series [18] has as its target T1, Glutamate carboxypeptidase 2. The series is described as follows: Inhibition of human recombinant PSMA.
Series [19] can be described thus: Half life in BALB/c mouse at 67 mg/kg by LC-MS/MS analysis. Format: ADME, organism-based. The note with it: in vivo.

T1 sequence (Q04609 whole entry): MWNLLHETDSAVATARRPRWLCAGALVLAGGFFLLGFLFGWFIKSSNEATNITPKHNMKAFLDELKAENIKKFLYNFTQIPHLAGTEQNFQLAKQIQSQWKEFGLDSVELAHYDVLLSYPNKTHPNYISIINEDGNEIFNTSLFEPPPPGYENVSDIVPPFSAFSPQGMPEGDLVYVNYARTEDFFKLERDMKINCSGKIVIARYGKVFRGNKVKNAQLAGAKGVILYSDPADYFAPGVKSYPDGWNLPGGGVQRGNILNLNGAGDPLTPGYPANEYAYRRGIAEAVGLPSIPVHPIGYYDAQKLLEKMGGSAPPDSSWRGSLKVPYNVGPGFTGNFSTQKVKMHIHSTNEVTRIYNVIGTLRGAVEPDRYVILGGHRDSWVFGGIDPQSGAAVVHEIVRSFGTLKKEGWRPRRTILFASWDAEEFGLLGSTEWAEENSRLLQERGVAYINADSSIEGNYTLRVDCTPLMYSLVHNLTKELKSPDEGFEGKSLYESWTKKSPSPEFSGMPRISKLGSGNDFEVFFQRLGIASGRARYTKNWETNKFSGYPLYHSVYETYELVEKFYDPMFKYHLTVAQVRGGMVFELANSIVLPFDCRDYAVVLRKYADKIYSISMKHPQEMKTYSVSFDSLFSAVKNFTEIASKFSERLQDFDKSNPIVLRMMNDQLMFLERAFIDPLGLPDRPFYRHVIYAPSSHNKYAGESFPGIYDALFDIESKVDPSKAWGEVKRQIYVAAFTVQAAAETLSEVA

`NCCCC[C@H](NC(=O)N[C@@H](CCC(=O)O)C(=O)O)C(=O)O`: in series [1], the Ki was determined as 12 nM.

As to `CC[C@@H](C)[C@H]([C@H](CC(=O)N1CCC[C@@H]1[C@@H](OC)[C@H](C)C(=O)N[C@@H](C)[C@H](O)c1ccccc1)OC)N(C)C(=O)[C@H](NC(=O)[C@@H](C(C)C)N(C)C(=O)OCc1ccc(NC(=O)[C@@H](CCCNC(N)=O)NC(=O)[C@@H](NC(=O)CCCCCN2C(=O)CC(SC[C@H](NC(=O)[C@H](CCC(=O)O)NC(=O)[C@H](CCC(=O)O)NC(=O)[C@H](CCC(=O)O)NC(=O)CCCCCNC(=O)[C@H]3CC[C@H](CNC(=O)CC[C@@H](NC(=O)N[C@H](CCC(=O)O)C(=O)O)C(=O)O)CC3)C(=O)NCCCCCC(=O)N[C@@H](CCCCNC(=O)CCCCC[N+]3=C(/C=C/C=C/C=C4/N(C)c5ccc6ccccc6c5C4(C)C)C(C)(C)c4c3ccc3ccccc43)C(=O)O)C2=O)C(C)C)cc1)C(C)C` (stereo not given in full), the IC50 was 4.64 nM in series [2], 17 nM in series [3], 4.34 nM in series [4] and 0.84 nM in [5].

Take `CC(=O)O[C@H]1C(=O)[C@@]2(C)[C@H]([C@H](OC(=O)c3ccccc3)[C@]3(O)C[C@H](OC(=O)[C@H](OC(=O)CSSCC(=O)NCCNC(=O)CC[C@@H](NC(=O)N[C@H](CCC(=O)O)C(=O)O)C(=O)O)[C@@H](NC(=O)c4ccccc4)c4ccccc4)C(C)=C1C3(C)C)[C@]1(OC(C)=O)CO[C@@H]1C[C@@H]2O`: in series [6] (read-out: IC50), the IC50 was determined as 121 nM. Moreover, in series [7], the IC50 at 48 h is 14.2 nM.

As for `CC[C@@H](C)[C@H]([C@H](CC(=O)N1CCC[C@@H]1[C@@H](OC)[C@H](C)C(=O)N[C@@H](C)[C@H](O)c1ccccc1)OC)N(C)C(=O)[C@@H](NC(=O)[C@H](C(C)C)N(C)C(=O)OCc1ccc(NC(=O)[C@@H](CCCNC(N)=O)NC(=O)[C@H](NC(=O)CCCCCCC(=O)NCCCC[C@@H](NC(=O)N[C@H](CCC(=O)O)C(=O)O)C(=O)O)C(C)C)cc1)C(C)C`, the IC50 in series [8] was 3.9 nM; in [10], around 0.04 nM. Moreover, the Activity in series [9] is listed as 62.4 mm3.

For the compound `CCCC(=O)OCN(C(=O)[C@@H](NC(=O)[C@H]1CCCCN1C)[C@@H](C)CC)[C@H](C[C@@H](OC(C)=O)c1nc(C(=O)N[C@@H](Cc2ccc(O)cc2)C[C@H](C)C(=O)NNC(=O)OCCSSC[C@H](NC(=O)[C@H](CC(=O)O)NC(=O)[C@H](CC(=O)O)NC(=O)Cc2ccc(CNC(=O)NCCCC[C@@H](NC(=O)N[C@H](CCC(=O)O)C(=O)O)C(=O)O)cc2)C(=O)O)cs1)C(C)C`, the IC50 in series [11] is 0.9 nM; in series [12], 0.6 nM; in [13], around 13 nM.

As for `CC[C@H](C)[C@@H]([C@@H](CC(=O)N1CCC[C@H]1[C@H](OC)[C@@H](C)C(=O)N[C@H](C)[C@@H](O)c1ccccc1)OC)N(C)C(=O)[C@@H](NC(=O)[C@H](C(C)C)N(C)C(=O)OCc1ccc(NC(=O)[C@H](CCCNC(N)=O)NC(=O)[C@@H](NC(=O)CCCCCN2C(=O)CC(SCCC(=O)NC(Cc3cn(CCOCCNCCCCCCOc4cc(OCCCc5c(C)n[nH]c5C)cc(C(=O)O)c4)nn3)C(=O)NCCCCCC(=O)NCCCC[C@H](NC(=O)N[C@@H](CCC(=O)O)C(=O)O)C(=O)O)C2=O)C(C)C)cc1)C(C)C` (stereo not given in full), the IC50 in series [14] stood at 313 nM; in series [15], 5.4 nM.

Regarding `O=C(O)CC[C@H](NC(=O)N[C@@H](CCC(=O)O)C(=O)O)C(=O)O`, in series [16], the Ki stood at 8 nM.

With `O=C(O)CCC(CP(=O)(O)O)C(=O)O` (stereo not given), the Ki in [17] was around 0.275 nM.

`CSC[C@@H](NC(=O)N[C@H](CCC(=O)O)C(=O)O)C(=O)O`: in [18], the IC50 stood at 15.3 nM.

Consider `CC(=O)O[C@H]1C(=O)[C@@]2(C)[C@H]([C@H](OC(=O)c3ccccc3)[C@]3(O)C[C@H](OC(=O)[C@H](O)[C@@H](NC(=O)c4ccccc4)c4ccccc4)C(C)=C1C3(C)C)[C@]1(OC(C)=O)CO[C@@H]1C[C@@H]2O` [PACLITAXEL], for which the IC50 in series [6] came to 563 nM.

With `C/C=C(/C)C(=O)O[C@H]1C(C)=C2[C@H]([C@@H]1OC(=O)CCCCCCC)[C@@](C)(OC(C)=O)C[C@H](OC(=O)CCCCCCCCCCCNC(=O)C[C@H](N)C(=O)N[C@@H](CCC(=O)N[C@@H](CCC(=O)N[C@@H](CCC(=O)N[C@@H](CCC(=O)O)C(=O)O)C(=O)O)C(=O)O)C(=O)O)[C@@]1(O)[C@H]2OC(=O)[C@@]1(C)O` [MIPSAGARGIN], in series [19], the half-life was 4.9 h.

The Ki is the dissociation constant of the complex between target and ligand, obtained from inhibition or displacement. A word on the IC50: it is the point on the concentration scale where inhibition reaches its midpoint. As usually defined, the half-life is how long it takes for the measured level to halve. Higher therefore signals slow loss.
